{"source": "patent US8598118B2", "about": "“Hepatocyte growth factor mimics as therapeutic agents” (Washington State University, priority 2011, dated 2013)", "key": {"hippocampal neurons [1]": {"tested_on": "hippocampal neurons", "experiment": "Spinogenesis in mRFP-β-actin transfected dissociated hippocampal neurons", "assay_type": "cell-based, rat", "procedure": "(§1) Hippocampal neurons (2×10^5 cells per square cm) were cultured from P1 Sprague Dawley rats on plates coated with poly-L-lysine from Sigma (St. Louis, Mo.; molecular weight 300,000). Hippocampal neurons were maintained in Neurobasal A media from Invitrogen (Carlsbad, Calif.) supplemented with B27 from Invitrogen, 0.5 mM L-glutamine, and […] cytosine-D-arabinofuranoside from Sigma added at 2 days in vitro. Hippocampal neurons were then cultured a further 3-7 days, at which time they were either transfected or treated with various pharmacological reagents as described in (Wayman, Davare et al. 2008).\n(§2) Neurons were transfected with mRFP-β-actin on day in vitro 6 (DIV6) using LipofectAMINE™ 2000 (Invitrogen) according to the manufacturer's protocol. This protocol yielded the desired 3-5% transfection efficiency thus enabling the visualization of individual neurons. Higher efficiencies obscured the dendritic arbor of individual neurons. Expression of fluorescently tagged actin allowed clear visualization of dendritic spines, as dendritic spines are enriched in actin. On DIV7 the cells were treated with vehicle (H20) or peptides (as described in the text) added to media. On DIV 12 the neurons were fixed (4% paraformaldehyde, 3% sucrose, 60 mM PIPES, 25 mM HEPES, 5 mM EGTA, 1 mM MgCl2, pH 7.4) for 20 min at room temperature and mounted. Slides were dried for at least 20 hours at 4° C. and fluorescent images were obtained with Slidebook 4.2 Digital Microscopy Software driving an Olympus IX81 inverted confocal microscope with a 60× oil immersion lens, NA 1.4 and resolution 0.280 μm Dendritic spine density was measured on primary and secondary dendrites at a distance of at least 150 μm from the soma. Five 50 μm long segments of dendrite from at least 10 neurons per data point were analyzed for each data point reported. Each experiment was repeated at least three times using independent culture preparations. Dendrite length was determined using the National Institutes of Health's Image J 1.41o program (NIH, Bethesda, Md.) and the neurite tracing program Neuron J (Meijering, Jacob et al. 2004) Spines were manually counted.\nas §1, with “centimeter)” for “cm)”, “P1-2” for “P1”, “the text or figure legends.” for “(Wayman, Davare et al. 2008).”"}, "hippocampal neurons [2]": {"tested_on": "hippocampal neurons", "experiment": "Whole-cell recordings of AMPA-mediated mEPSCs", "assay_type": "cell-based, rat"}, "CA1 hippocampal neurons": {"tested_on": "CA1 hippocampal neurons", "experiment": "Spinogenesis in organotypic hippocampal slice cultures", "assay_type": "cell-based, rat", "conditions": "10^−12 M, 2 days, organotypic slices", "procedure": "(§3) Hippocampi from P4 Sprague Dawley rats were cultured as previously described (Wayman, Impey et al. 2006). Briefly, 400 μm slices were cultured on (Milipore, Billerica, Mass.) for 3 days after which they were biolistically transfected with tomato fluorescent protein (TFP) using a Helios Gen Gun (BioRad, Hercules, Calif.), according to the manufacturer's protocol, to visualize dendritic arbors. Following a 24 hour recovery period slices were stimulated with vehicle (H2O), 1 pM Nle1-AngIV or Dihexa for 2 days. Slices were fixed and mounted. Hippocampal CA1 neuronal processes were imaged and measured as described above.\nas §3, with “Gene” for “Gen”, “with” for “with vehicle (H2O),”"}, "c-Met receptor": {"target": "T1, c-Met receptor (Rattus norvegicus, UniProt P97523)", "T1 construct": "Dissociated hippocampal neurons were transfected with mRFP-β-actin and shMet RNA; endogenous in cells; host or cells: dissociated hippocampal neurons from P1-2 Sprague Dawley rats", "T1 sequence (P17945 33-495 partner limits assumed)": "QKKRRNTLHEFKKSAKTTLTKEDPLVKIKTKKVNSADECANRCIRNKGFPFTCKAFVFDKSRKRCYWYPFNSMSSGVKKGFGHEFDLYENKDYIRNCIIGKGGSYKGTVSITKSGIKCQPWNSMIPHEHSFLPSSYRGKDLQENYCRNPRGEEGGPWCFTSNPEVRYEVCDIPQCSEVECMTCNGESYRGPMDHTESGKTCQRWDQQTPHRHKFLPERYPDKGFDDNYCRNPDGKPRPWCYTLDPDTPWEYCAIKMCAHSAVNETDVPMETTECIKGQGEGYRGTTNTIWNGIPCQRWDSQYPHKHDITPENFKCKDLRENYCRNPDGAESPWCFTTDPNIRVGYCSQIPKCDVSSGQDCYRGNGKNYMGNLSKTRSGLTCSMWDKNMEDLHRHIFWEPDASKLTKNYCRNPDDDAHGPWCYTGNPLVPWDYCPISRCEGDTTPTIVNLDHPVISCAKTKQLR", "T1 sequence (P17945 496-728 partner limits assumed)": "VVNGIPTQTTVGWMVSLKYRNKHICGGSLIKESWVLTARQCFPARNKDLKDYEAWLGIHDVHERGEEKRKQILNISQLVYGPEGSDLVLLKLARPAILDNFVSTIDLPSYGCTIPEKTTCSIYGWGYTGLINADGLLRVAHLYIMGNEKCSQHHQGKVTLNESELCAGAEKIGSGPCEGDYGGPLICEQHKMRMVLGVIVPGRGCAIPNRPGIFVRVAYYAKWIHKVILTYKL", "T1 sequence (P97523 25-1382)": "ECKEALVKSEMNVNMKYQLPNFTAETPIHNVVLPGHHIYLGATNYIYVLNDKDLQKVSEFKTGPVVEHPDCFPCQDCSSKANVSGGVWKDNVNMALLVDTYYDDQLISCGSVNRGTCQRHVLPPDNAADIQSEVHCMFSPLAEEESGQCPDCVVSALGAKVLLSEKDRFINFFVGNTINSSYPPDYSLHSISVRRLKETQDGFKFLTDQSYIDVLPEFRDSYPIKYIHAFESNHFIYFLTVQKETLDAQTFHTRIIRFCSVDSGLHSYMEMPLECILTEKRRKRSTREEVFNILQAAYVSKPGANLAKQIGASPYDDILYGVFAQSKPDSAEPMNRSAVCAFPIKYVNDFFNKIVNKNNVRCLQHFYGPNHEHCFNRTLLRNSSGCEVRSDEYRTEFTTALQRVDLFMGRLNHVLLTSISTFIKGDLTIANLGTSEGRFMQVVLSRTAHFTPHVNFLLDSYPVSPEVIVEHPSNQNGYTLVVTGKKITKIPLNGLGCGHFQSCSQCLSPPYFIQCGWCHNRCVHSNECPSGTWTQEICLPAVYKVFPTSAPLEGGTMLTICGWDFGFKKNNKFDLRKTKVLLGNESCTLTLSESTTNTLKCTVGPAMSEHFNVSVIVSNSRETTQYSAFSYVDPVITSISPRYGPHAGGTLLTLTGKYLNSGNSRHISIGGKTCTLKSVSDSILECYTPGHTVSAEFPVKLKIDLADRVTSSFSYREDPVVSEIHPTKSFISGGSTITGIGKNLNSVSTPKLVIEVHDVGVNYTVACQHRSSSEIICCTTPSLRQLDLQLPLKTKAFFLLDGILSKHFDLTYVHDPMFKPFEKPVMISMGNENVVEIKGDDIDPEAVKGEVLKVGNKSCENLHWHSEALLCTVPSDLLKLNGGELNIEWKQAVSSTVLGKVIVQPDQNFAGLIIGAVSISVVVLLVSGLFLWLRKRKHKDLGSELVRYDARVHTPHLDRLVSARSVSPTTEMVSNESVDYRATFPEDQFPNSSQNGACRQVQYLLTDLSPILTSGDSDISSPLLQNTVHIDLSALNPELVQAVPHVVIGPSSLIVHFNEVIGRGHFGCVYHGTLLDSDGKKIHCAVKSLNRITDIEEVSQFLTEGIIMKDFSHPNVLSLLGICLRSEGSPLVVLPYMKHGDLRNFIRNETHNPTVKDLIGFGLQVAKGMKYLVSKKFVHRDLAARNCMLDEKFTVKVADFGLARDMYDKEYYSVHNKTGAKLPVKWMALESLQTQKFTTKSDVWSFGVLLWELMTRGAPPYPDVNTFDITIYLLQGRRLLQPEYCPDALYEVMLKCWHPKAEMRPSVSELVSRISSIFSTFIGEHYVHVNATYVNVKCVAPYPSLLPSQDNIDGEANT", "experiment": "Effect of c-Met knock-down (shMet) on spinogenesis in hippocampal neurons", "assay_type": "cell-based", "conditions": "neurons transfected with mRFP-β-actin alone; 10^−12 M, 48 hours", "from_the_text": "as §2\nA target sequence for c-Met was designed using RNAi central design program (see the website located at cancan.cshl.edu/). […]. The shRNA was transfected into cells using the lipofectamine method described above. Verification of receptor knockdown was done by creating a c-Met-6-Myc tagged gene product using the Gateway cloning system (Invitrogen). […]"}, "MDCK cells [3]": {"tested_on": "MDCK cells", "experiment": "HGF-dependent MDCK cell proliferation (MTT)", "assay_type": "cell-based, canine", "conditions": "analog 10^−10M, 4 days", "procedure": "5000 MDCK cells were seeded into the wells of a 96 well plates in 10% FBS DMEM. To induce cellular quiescence, the cells were serum deprived for 24 h prior to initiating the treatments. Following serum starvation, 10 ng/ml HGF alone and with various concentrations of 6-AH analogs or PBS vehicle were added to the media. The cells were allowed to grow under these conditions for 4 days with a daily addition of 6-AH analogs. On the fourth day, 1 mg/ml of […] (MTT, Sigma-Aldrich) prepared in PBS was added to the cells and incubated for 4 h. Dimethyl sulfoxide diluted in a 0.01M glycine buffer was added to solubilize the cell membranes and the absorbance of reduced MTT in the buffer was quantitated at 590 nm using a plate reader (Biotek Synergy 2, Winooski, Vt.). HGF-dependent proliferation was determined by subtracting the basal proliferation (in the absence of HGF) from total proliferation rates in groups containing HGF."}, "Met": {"tested_on": "Met", "experiment": "Inhibition of HGF-dependent Met phosphorylation in HEK293 cells", "assay_type": "cell-based, human", "conditions": "10 min", "procedure": "HEK293 cells were seeded in 6 well tissue culture plates and grown to 95% confluency in DMEM containing 10% FBS. The cells were serum deprived for 24 h prior to the treatment to reduce the basal levels of phospho-Met. Following serum starvation, cocktails comprised of vehicle and HGF with/without 6-AH analogs were prepared and pre-incubated for 30 min at room temperature. The cocktail was then added to the cells for 10 min to stimulate the Met receptor and downstream proteins. Cells were harvested using RIPA lysis buffer (Millipore; Billerica, Mass.) fortified with phosphatase inhibitor cocktails 1 and 2 (Sigma-Aldrich; St. Louis, Mo.). The lysate was clarified by centrifugation at 15,000 nx g for 15 min, protein concentrations were determined using the BCA total protein assay (Pierce), and then appropriate volumes of the lysates were diluted with 2× reducing Laemmli buffer and heated for ten min at 95° C. Samples containing identical amounts of protein were resolved using SDS-PAGE (Criterion, BioRad Laboratories), transferred to nitrocellulose, and blocked in Tris-buffered saline (TBS) containing 5% milk for 1 h at room temperature. The phospho-Met antibody were added to the blocking buffer at a final concentration of 1:1000 and incubated at 4° C. overnight with gentle agitation. The membranes were then washed several times with water and TBS ([…], 0.05% Tween-20), a 1:5000 dilution of horseradish-peroxidase conjugated goat anti-rabbit antiserum was added, and the membranes further incubated for 1 h at room temperature. Proteins were visualized using the Supersignal West Pico Chemiluminescent Substrate system (Pierce, Fenton, Mo.) and molecular weights determined by comparison to protein ladders (BenchMark, Invitrogen, and Kaleidoscope, BioRad). Film images were digitized and analyzed using a UVP phosphoimager."}, "MDCK cells [4]": {"tested_on": "MDCK cells", "experiment": "Inhibition of HGF-dependent scattering in MDCK cells", "assay_type": "cell-based, canine", "conditions": "for inhibition of HGF-dependent MDCK cell scattering: 20 ng/ml HGF, 48 h", "procedure": "(§4) MDCK cells were grown to 100% confluency on the coverslips in six-well plates and washed twice with PBS. The confluent coverslips were then aseptically transferred to new six well plates containing 900 μl serum free DMEM. Norleual, Hinge peptide, and/or HGF (20 ng/ml) were added to appropriate wells. Control wells received PBS vehicle. Plates were incubated at 37° C. with 5% CO2 for 48 hours. Media was removed and cells were fixed with methanol. Cells were stained with Diff-Quik Wright-Giemsa (Dade-Behring, Newark, Del.) and digital images were taken. Coverslips were removed with forceps and more digital images were captured. Pixel quantification of images was achieved using Image J and statistics were performed using Prism 5 and InStat v.3.05.\nas §4, with “h.” for “hours.”, “v.3.05 (GraphPad; San Diego, Calif.).” for “v.3.05.”"}, "Male Sprague-Dawley rats": {"tested_on": "Male Sprague-Dawley rats", "experiment": "Morris water maze with the HGF antagonist Hinge (Example 2)", "protocol": "Male Sprague-Dawley rats (Taconic derived) weighing 390-450 g were maintained with free access to water and food (Harland Tekland F6 rodent diet, Madison, Wis.) except the night prior to surgery when food was removed. Each animal was anesthetized with Ketamine hydrochloride plus Xylazine (100 and 2 mg/kg im. respectively; Phoenix Scientific; St. Joseph, Mo., and Moby; Shawnee, Kans.). […] The guide cannula measured 2.5 cm in overall length and was prepared with a heat bulge placed 2.5 mm from its beveled tip, thus acting as a stop to control the depth of penetration. Once in position, the cannula was secured to the skull with two stainless-steel screws and dental cement. […]\nA black circular platform (diameter: 12 cm; height: 24 cm) was placed 30 cm from the wall and submerged 2 cm below the water surface. […] The swimming path of the animals was recorded using a computerized video tracking system (Chromotrack; San Diego Instruments, CA). […] Swim speed was determined from these values. […]\nMorris water maze data set mean latencies to find the platform during each daily block of five trials were calculated for each animal for each day of acquisition. […] Significant effects were analyzed by Newman-Keuls post-hoc test with a level of significance set at P<0.05."}}, "note": "Structures can show the parent of a compound that is named as a salt. Where a SMILES comes first, the peptide text is derived from it. [ ]: non-standard residue; d: D form. dNle = CCCC[C@@H](N)C(=O)O; Nle = CCCC[C@H](N)C(=O)O; Ahx = NCCCCCC(=O)O", "data": [{"compound": "CCCC[C@H](N)C(=O)N[C@@H](Cc1ccc(O)cc1)C(=O)N[C@H](C(=O)N[C@@H](Cc1c[nH]cn1)C(=O)N1CCC[C@H]1C(=O)N[C@@H](Cc1ccccc1)C(=O)O)[C@@H](C)CC", "note": "[Nle1-AngIV, reference compound] (H-[Nle]YIHPF-OH; N-terminus and C-terminus assumed)", "values": [{"measurement": "fold increase in the number of spines", "setting": "hippocampal neurons [1]; 10^−12 M, 5 day treatment, vs vehicle", "result": "greater than 2 fold"}, {"measurement": "fold increase over control mEPSC frequency", "setting": "hippocampal neurons [2]; 10-12 M, 5 days", "result": 1.7, "unit": "fold"}, {"measurement": "mean frequency of AMPA-mediated mEPSCs", "setting": "hippocampal neurons [2]; 10-12 M, 5 days (Example 1)", "result": 5.27, "unit": "Hz"}, {"measurement": "spines per 50 μm dendrite length, CA1 neurons", "setting": "CA1 hippocampal neurons", "result": "11 spines per 50 μm dendrite length"}, {"measurement": "mean spine numbers per 50 μm dendrite length", "setting": "c-Met receptor", "result": 20.0}]}, {"compound": "CCCC[C@@H](N)C(=O)N[C@@H](Cc1c[nH]c2ccccc12)C(=O)N[C@H](C(=O)NCCCCCC(N)=O)[C@@H](C)CC", "note": "[D-Nle-Trp-Ile-NH—(CH2)5—CONH2] (H-[dNle]WI[Ahx]-NH2)", "values": [{"measurement": "inhibition of HGF-dependent MDCK cell proliferation", "setting": "MDCK cells [3]", "result": "inhibitory activity, albeit less than that observed with the most potent analogs"}, {"measurement": "inhibition of HGF-dependent Met auto-phosphorylation", "setting": "Met", "result": "intermediate inhibitory activity"}, {"measurement": "inhibition of HGF-dependent MDCK cell scattering", "setting": "MDCK cells [4]", "result": "different from the HGF alone group but not different from the control group"}]}, {"compound": "CN1[C@@H]2C[C@@H](OC(=O)[C@H](CO)c3ccccc3)C[C@H]1[C@@H]1O[C@@H]12", "note": "[scopolamine, scopolamine hydrobromide]", "values": [{"measurement": "mean latency to find the pedestal, final day of training (day 8)", "setting": "Male Sprague-Dawley rats; scopolamine icv pretreated rats, agents 300 pmol icv", "result": 84.8, "unit": "s"}]}, {"compound": "CCCC[C@@H](N)C(=O)N[C@@H](CCSC)C(=O)N[C@H](C(=O)NCCCCCC(N)=O)[C@@H](C)CC", "note": "[D-Nle-Met-Ile-NH—(CH2)5—CONH2] (H-[dNle]MI[Ahx]-NH2)", "values": [{"measurement": "inhibition of HGF-dependent Met auto-phosphorylation", "setting": "Met", "result": "no ability to effect on Met activation"}, {"measurement": "inhibition of HGF-dependent MDCK cell scattering", "setting": "MDCK cells [4]", "result": "not different"}]}, {"compound": "DYIRNC (Synthetic hinge peptide) [novel HGF antagonist; peptide representing the dimerization domain (hinge region) of HGF, reference compound]", "values": [{"measurement": "effect on basal spinogenesis", "setting": "hippocampal neurons [1]; Hinge alone, wide range of doses", "result": "no effect on spinogenesis"}, {"measurement": "inhibition of stimulated spine formation", "setting": "hippocampal neurons [1]; neurons stimulated with 10 ng/ml HGF, 10^−12 M Nle1-AngIV or 10^−12 M Dihexa", "result": "effectively inhibit spine formation"}, {"measurement": "mean frequency of mEPSCs", "setting": "hippocampal neurons [2]; 10^−12 M, 5 days (Example 2)", "result": "4.51±0.47"}, {"measurement": "mean latency to find the pedestal, final day of training (day 8)", "setting": "Male Sprague-Dawley rats; aCSF followed by Hinge (no scopolamine), icv", "result": 46.1, "unit": "s"}, {"measurement": "inhibition of scattering of MDCK cells", "setting": "MDCK cells [4]; Hinge", "result": "inhibit scattering"}]}]}
